Test results: ChEMBL document CHEMBL1133986, “Design and synthesis of new potent human cytomegalovirus (HCMV) inhibitors based on internally hydrogen-bonded 1,6-naphthyridines” (Bioorg Med Chem Lett, 2001)
≈ marks a conversion by molar mass, not a printed value.

What was measured:
Hs68 [1] = test: Inhibitory activity against Human cytomegalovirus (HCMV) in Hs 68 cell line determined by plaque reduction assay; type: functional, cell-based
Hs68 [2] = test: Cytotoxicity against the Hs 68 cell line; type: functional; details: Homo sapiens

Compound	IC50 (Hs68 [1]) [mg/L]	CC50 (Hs68 [2]) [mg/L]
O=C(Nc1ccccc1)Nc1ccc2cnccc2n1	> 25	> 100
COc1ccccc1NC(=O)Nc1ccc2cnccc2n1	1.2 (≈ 4.08 µM)	33.9 (≈ 115 µM)
CCOc1ccccc1NC(=O)Nc1ccc2cncc(Br)c2n1	0.46 (≈ 1.19 µM)	9.3 (≈ 24 µM)
CCOc1ccccc1NC(=O)Nc1nc2ccncc2cc1C#N	> 25	< 25
O=C(NCc1ccccc1)Nc1ccc2cnccc2n1	0.29 (≈ 1.04 µM)	0.37 (≈ 1.33 µM)
CCOc1ccccc1NC(=O)Nc1nc2ccncc2cc1C	> 25	> 100

More lines, main results first:

IC50 (Hs68 [1]) [mg/L]	Compound	CC50 (Hs68 [2]) [mg/L]
0.01 (≈ 0.0297 µM)	CC(C)Oc1ccccc1CNC(=O)Nc1ccc2cnccc2n1	18.9 (≈ 56.2 µM)
0.93 (≈ 3.01 µM)	COc1ccccc1C/N=C(\S)c1ccc2cnccc2n1	8.1 (≈ 26.2 µM)
0.1 (≈ 0.309 µM)	CCOc1ccccc1C/N=C(\S)c1ccc2cnccc2n1	4.6 (≈ 14.2 µM)
1 (≈ 3.24 µM)	COc1ccccc1CNC(=O)Nc1ccc2cnccc2n1	13 (≈ 42.2 µM)
0.03 (≈ 0.0931 µM)	CC(C)Oc1ccccc1NC(=O)Nc1ccc2cnccc2n1	30.2 (≈ 93.7 µM)
0.14 (≈ 0.454 µM)	CCOc1ccccc1NC(=O)Nc1ccc2cnccc2n1	1.7 (≈ 5.51 µM)
0.16 (≈ 0.474 µM)	CC(C)Oc1ccccc1C/N=C(\S)c1ccc2cnccc2n1	11.1 (≈ 32.9 µM)
